In patent EP1493444A1, “Pharmaceutical composition used as anti-infective of the upper respiratory tract” (priority 2003, dated 2005):

Test system: muqueuse
Test: Comparative acute in vivo toxicity (mucosal irritation, C20)
Parameters: species or system lapin
Details: for concentration théorique provoquant une irritation de la muqueuse moyenne identique (C20): rabbit, in vivo
Excerpt: Enfin, une autre expérience a encore consisté à comparer la toxicité aiguë in vivo du polihexanide avec celle d'autres composés.
A cet effet, la toxicité du polihexanide a été comparée in vivo chez le lapin à celle du digluconate de chlorhexidine, et à celle de trois chlorures de benzyldiméthylalkylammonium.
Pour chacune des substances étudiées, une concentration théorique provoquant une irritation de la muqueuse moyenne identique (C20) a été déterminée.
Ces concentrations sont respectivement : • 0,25 g % pour le chlorure de benzalkonium • 0,28 g % pour le chlorure de benzyldiméthyldodecylammonium • 0,32 g % pour le chlorure de benzyldiméthylhexadecylanmonium • 0,54 g % pour le digluconate de chlorhexidine • 12,2 g % pour le polihexanide.
Ces valeurs montrent par conséquent, que le polihexanide est beaucoup moins toxique pour la muqueuse que les autres composés testés, puisque sa valeur C20 est 22 fois supérieure à celle de la chlorhexidine et 44 fois plus élevée que la valeur moyenne des chlorures de benzalkonium.

Molecule | concentration théorique provoquant une irritation de la muqueuse moyenne identique (C20) | valeur C20 supérieure à celle de la chlorhexidine (ratio of C20 values, versus chlorhexidine) [fois] | valeur C20 plus élevée que la valeur moyenne des chlorures de benzalkonium (ratio of C20 values, versus the mean of the benzalkonium chlorides) [fois]
CCCCCCCCCCCCC[N+](C)(C)Cc1ccccc1 [chlorure de benzalkonium] | 0,25 g % |  | 
CCCCCCCCCCCC[N+](C)(C)Cc1ccccc1 [chlorure de benzyldiméthyldodecylammonium] | 0,28 g % |  | 
CCCCCCCCCCCCCCCC[N+](C)(C)Cc1ccccc1 [chlorure de benzyldiméthylhexadecylanmonium] | 0,32 g % |  | 
[H]/N=C(\N/C(=N/[H])NCCCCCCNC(=N)NC(=N)Nc1ccc(Cl)cc1)Nc1ccc(Cl)cc1 [digluconate de chlorhexidine] | 0,54 g % |  | 
polihexanide | 12,2 g % | 22 | 44
